Each structure is given as a SMILES string.

The experiment concerns the target T1, human ferroportin (Homo sapiens, UniProt Q9NP59).
T1 construct: luciferase reporter (read with the Nano-Glo Luciferase Assay System); expressed in transfected cells; host or cells: CHO cells, stably transfected, expression induced with doxycycline
T1 sequence (Q9NP59 1-571): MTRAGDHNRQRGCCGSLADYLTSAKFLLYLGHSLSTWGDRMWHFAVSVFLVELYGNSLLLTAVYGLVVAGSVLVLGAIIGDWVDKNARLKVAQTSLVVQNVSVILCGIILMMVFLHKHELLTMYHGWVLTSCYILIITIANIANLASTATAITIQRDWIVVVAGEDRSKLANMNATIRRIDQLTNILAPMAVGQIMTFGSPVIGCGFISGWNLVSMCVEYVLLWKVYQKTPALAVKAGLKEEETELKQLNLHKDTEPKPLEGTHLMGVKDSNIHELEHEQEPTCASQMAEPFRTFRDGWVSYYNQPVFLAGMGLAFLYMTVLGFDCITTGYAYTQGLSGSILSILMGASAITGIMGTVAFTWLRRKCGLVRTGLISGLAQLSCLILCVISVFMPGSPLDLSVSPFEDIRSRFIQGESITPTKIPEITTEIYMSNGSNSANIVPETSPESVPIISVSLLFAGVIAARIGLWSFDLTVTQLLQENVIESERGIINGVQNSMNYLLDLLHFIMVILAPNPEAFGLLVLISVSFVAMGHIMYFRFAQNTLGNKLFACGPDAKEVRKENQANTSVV
The experiment can be described thus: Biological in-vitro ferroportin internalization assay (luciferase reporter). It counts as cell-based. To be noted: average pEC50; stably-transfected CHO cell line expressing human ferroportin tagged to a luciferase reporter; 6 h incubation with test compound. The essentials:
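Read-out is Nano-Glo luciferase signal after 6 h compound exposure, with average pEC50 derived. Cells are a stable CHO line carrying luciferase-tagged human ferroportin, pre-loaded 24 h with ferric ammonium citrate and doxycycline-induced for 24 h.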
(In a reporter assay the amount or activity of a reporter protein is the signal.)
What is called pEC50 is the EC50 on a negative log10 scale, so that one unit is a factor of ten. A higher pEC50 goes with a small EC50. Regarding `COc1ccnc(-c2nc3c(c(N(C)[C@H]4CCN(c5ccccc5)C4=O)n2)CCC3)c1` [Compound 205, (3S)-3-{[2-(4-methoxypyridin-2-yl)-5H,6H,7H-cyclopenta[d]pyrimidin-4-yl](methyl)amino}-1-phenylpyrrolidin-2-one], the pEC50 came to 7.5.

The compound `CN(c1nc(-c2ccccn2)nc2c1CCC2)[C@H]1CCN(c2ccc(F)cc2)C1=O` [Compound 206, (3S)-1-(4-fluorophenyl)-3-{methyl[2-(pyridin-2-yl)-5H,6H,7H-cyclopenta[d]pyrimidin-4-yl]amino}pyrrolidin-2-one] had a pEC50 of 6.9.

With `CN(c1nc(-c2ccccn2)nc2c1CCC2)[C@H]1CCN(C2(C)CCCC2)C1=O` [Compound 207, (3S)-3-{methyl[2-(pyridin-2-yl)-5H,6H,7H-cyclopenta[d]pyrimidin-4-yl]amino}-1-(1-methylcyclopentyl)pyrrolidin-2-one], the pEC50 was 7.2.

The compound `CN(c1nc(-c2ccccn2)nc2c1CCC2)[C@H]1CCN(c2ccncc2)C1=O` [Compound 208, (3S)-3-{methyl[2-(pyridin-2-yl)-5H,6H,7H-cyclopenta[d]pyrimidin-4-yl]amino}-1-(pyridin-4-yl)pyrrolidin-2-one] gave a pEC50 of 5.7.

`COc1ccc(NC(=O)CN(C)c2nc(-c3cc(OCCO)ccn3)nc3c2CCC3)nc1` [Compound 209, 2-({2-[4-(2-hydroxyethoxy)pyridin-2-yl]-5H,6H,7H-cyclopenta[d]pyrimidin-4-yl}(methyl)amino)-N-(5-methoxypyridin-2-yl)acetamide] had a pEC50 of 8.

`COc1ccc(NC(=O)CN(C)c2nc(-c3cc(OCC(C)(C)O)ccn3)nc3c2CCC3)cn1` [Compound 210, 2-({2-[4-(2-hydroxy-2-methylpropoxy)pyridin-2-yl]-5H,6H,7H-cyclopenta[d]pyrimidin-4-yl}(methyl)amino)-N-(6-methoxypyridin-3-yl)acetamide] returned a pEC50 of 7.9. The pEC50 values of the last two compounds are within 0.2 log units of each other.

For `CN(CC(=O)NC(C)(C)C)c1nc(-c2cc(OCC3COC3)ccn2)nc2c1CCC2` [Compound 211, N-tert-butyl-2-[methyl(2-{4-[(oxetan-3-yl)methoxy]pyridin-2-yl}-5H,6H,7H-cyclopenta[d]pyrimidin-4-yl)amino]acetamide], the negative-log EC50 (pEC50) is recorded as 7.9.

On to `CSCC[C@H](C(=O)NC(C)(C)C)N(C)c1nc(-c2cc(OC(F)F)ccn2)nc2c1CCC2` [Compound 212, (2R)—N-tert-butyl-2-({2-[4-(difluoromethoxy)pyridin-2-yl]-5H,6H,7H-cyclopenta[d]pyrimidin-4-yl}(methyl)amino)-4-(methylsulfanyl)butanamide], for which the negative logarithm of the EC50 (pEC50) was found to be 7.1.

In the case of `CN(CC(=O)Nc1cnn(C)c1)c1nc(-c2cc(OC(F)F)ccn2)nc2c1CCC2` [Compound 213, 2-({2-[4-(difluoromethoxy)pyridin-2-yl]-5H,6H,7H-cyclopenta[d]pyrimidin-4-yl}(methyl)amino)-N-(1-methyl-1H-pyrazol-4-yl)acetamide], the negative-log EC50 (pEC50) was determined as 6.4.

Compound `COc1ccc(NC(=O)CN(C)c2nc(-c3cc(OCC(C)(C)O)ccn3)nc3c2CCC3)nc1` [Compound 214, 2-({2-[4-(2-hydroxy-2-methylpropoxy)pyridin-2-yl]-5H,6H,7H-cyclopenta[d]pyrimidin-4-yl}(methyl)amino)-N-(5-methoxypyridin-2-yl)acetamide] gave a pEC50 of 7.8.

Compound `CN(CC(=O)Nc1cnn(C)c1)c1nc(-c2cc(OCC3CC3)ccn2)nc2c1CCC2` [Compound 215, 2-({2-[4-(cyclopropylmethoxy)pyridin-2-yl]-5H,6H,7H-cyclopenta[d]pyrimidin-4-yl}(methyl)amino)-N-(1-methyl-1H-pyrazol-4-yl)acetamide] yielded a pEC50 of 7.5.

On to `CN(CC(=O)Nc1ccc(F)nc1)c1nc(-c2cc(OC(F)F)ccn2)nc2c1CCC2` [Compound 216, 2-({2-[4-(difluoromethoxy)pyridin-2-yl]-5H,6H,7H-cyclopenta[d]pyrimidin-4-yl}(methyl)amino)-N-(6-fluoropyridin-3-yl)acetamide], for which the negative-log EC50 (pEC50) was 6.6.

Consider `COc1ccc(NC(=O)CN(C)c2nc(-c3cc(OC(F)F)ccn3)nc3c2CCC3)nc1` [Compound 217, 2-({2-[4-(difluoromethoxy)pyridin-2-yl]-5H,6H,7H-cyclopenta[d]pyrimidin-4-yl}(methyl)amino)-N-(5-methoxypyridin-2-yl)acetamide], for which the pEC50 is 6.9.

The compound `CN(CC(=O)Nc1cnn(C)c1)c1nc(-c2cc3ccccc3cn2)nc2c1CCC2` [Compound 218, 2-{[2-(isoquinolin-3-yl)-5H,6H,7H-cyclopenta[d]pyrimidin-4-yl](methyl)amino}-N-(1-methyl-1H-pyrazol-4-yl)acetamide] displayed a pEC50 of 7.

`COc1ccc(NC(=O)CN(C)c2nc(-c3cc4cn[nH]c4cn3)nc3c2CCC3)cn1` [Compound 219, N-(6-methoxypyridin-3-yl)-2-[methyl(2-{1H-pyrazolo[3,4-c]pyridin-5-yl}-5H,6H,7H-cyclopenta[d]pyrimidin-4-yl)amino]acetamide] gave a pEC50 of 7.1.

The compound `CN(CC(=O)Nc1cnn(C)c1)c1nc(-c2cn(C)cn2)nc2c1CCC2` [Compound 220, N-(1-methyl-1H-pyrazol-4-yl)-2-{methyl[2-(1-methyl-1H-imidazol-4-yl)-5H,6H,7H-cyclopenta[d]pyrimidin-4-yl]amino}acetamide] gave a pEC50 of 7.

In the case of `CN(CC(=O)Nc1ccc(F)nc1)c1nc(-c2cc3ccccc3cn2)nc2c1CCC2` [Compound 221, N-(6-fluoropyridin-3-yl)-2-{[2-(isoquinolin-3-yl)-5H,6H,7H-cyclopenta[d]pyrimidin-4-yl](methyl)amino}acetamide], the pEC50 is given as 7.

`Cc1ccc(NC(=O)CN(C)c2nc(-c3cc4ccccc4cn3)nc3c2CCC3)cn1` [Compound 222, 2-{[2-(isoquinolin-3-yl)-5H,6H,7H-cyclopenta[d]pyrimidin-4-yl](methyl)amino}-N-(6-methylpyridin-3-yl)acetamide] came in with a pEC50 of 7.2.

`CCOc1ccnc(-c2nc3c(c(N(C)CC(=O)Nc4ccc(OC)nc4)n2)CCC3)c1` [Compound 223, 2-{[2-(4-ethoxypyridin-2-yl)-5H,6H,7H-cyclopenta[d]pyrimidin-4-yl](methyl)amino}-N-(6-methoxypyridin-3-yl)acetamide]: the pEC50 worked out at 7.8.

`COc1ccc(NC(=O)CN(C)c2nc(-c3cc(OCC4CC4)ccn3)nc3c2CCC3)cn1` [Compound 224, 2-({2-[4-(cyclopropylmethoxy)pyridin-2-yl]-5H,6H,7H-cyclopenta[d]pyrimidin-4-yl}(methyl)amino)-N-(6-methoxypyridin-3-yl)acetamide]: the pEC50 is listed as 7.9.

On to `COc1ccc(NC(=O)CN(C)c2nc(-c3cc(OC(F)F)ccn3)nc3c2CCC3)cn1` [Compound 225, 2-({2-[4-(difluoromethoxy)pyridin-2-yl]-5H,6H,7H-cyclopenta[d]pyrimidin-4-yl}(methyl)amino)-N-(6-methoxypyridin-3-yl)acetamide], for which the pEC50 is 6.8.

For `CN(CC(=O)NC(C)(C)C)c1nc(-c2cc3c(cn2)OCO3)nc2c1CCC2` [Compound 226, N-tert-butyl-2-[(2-{2H-[1,3]dioxolo[4,5-c]pyridin-6-yl}-5H,6H,7H-cyclopenta[d]pyrimidin-4-yl)(methyl)amino]acetamide], the pEC50 turned out to be 7.1.

Compound `COc1ccc(NC(=O)CN(C)c2nc(-c3cc4ccccc4cn3)nc3c2CCC3)cn1` [Compound 227, 2-{[2-(isoquinolin-3-yl)-5H,6H,7H-cyclopenta[d]pyrimidin-4-yl](methyl)amino}-N-(6-methoxypyridin-3-yl)acetamide] gave a pEC50 of 7.2. The pEC50 values of the last two compounds are within 0.2 log units of each other.

As for `CN(CC(=O)Nc1cccnc1)c1nc(-c2cc3ccccc3cn2)nc2c1CCC2` [Compound 228], the pEC50 stood at 7.1.

`COc1ccc(NC(=O)CN(C)c2nc(-c3cc(OC(F)(F)F)ccn3)nc3c2CCC3)cn1` [Compound 230, N-(6-methoxypyridin-3-yl)-2-[methyl({2-[4-(trifluoromethoxy)pyridin-2-yl]-5H,6H,7H-cyclopenta[d]pyrimidin-4-yl})amino]acetamide] showed a pEC50 of 6.6.

`CN(CC(=O)Nc1cnn(C)c1)c1nc(-c2cc(OC(F)(F)F)ccn2)nc2c1CCC2` [Compound 231, 2-[methyl({2-[4-(trifluoromethoxy)pyridin-2-yl]-5H,6H,7H-cyclopenta[d]pyrimidin-4-yl})amino]-N-(1-methyl-1H-pyrazol-4-yl)acetamide] had a pEC50 of 6.2.

For the compound `CN(CC(=O)Nc1ccn(C)n1)c1nc(-c2cc3cn[nH]c3cn2)nc2c1CCC2` [Compound 232, 2-[methyl(2-{1H-pyrazolo[3,4-c]pyridin-5-yl}-5H,6H,7H-cyclopenta[d]pyrimidin-4-yl)amino]-N-(1-methyl-1H-pyrazol-3-yl)acetamide], the pEC50 amounted to 7.

`COc1ccc(NC(=O)CN(C)c2nc(-c3cc4ccccc4cn3)nc3c2CCC3)nc1` [Compound 233, 2-{[2-(isoquinolin-3-yl)-5H,6H,7H-cyclopenta[d]pyrimidin-4-yl](methyl)amino}-N-(5-methoxypyridin-2-yl)acetamide] gave a negative logarithm of the EC50 (pEC50) of 7.4.

(Values after US11746100B2 (GLOBAL BLOOD THERAPEUTICS, INC., priority 2020, dated 2023).)
